Test results from doi:10.1101/2024.03.29.587371v1 (biorxiv, 2024).
Residues, ends and D or L forms follow the SMILES beside them.

How the values were obtained:
Assay type in all cases: biochemical
AtFBA4 (SUMO-AtFBA4) [1] = target: T1, AtFBA4 (SUMO-AtFBA4) (Arabidopsis thaliana, UniProt F4KGQ0); assay: coupled NADH assay, activity relative to control; conditions: read-out: % residual activity at 5.0 mM
T1 sequence (F4KGQ0 1-393): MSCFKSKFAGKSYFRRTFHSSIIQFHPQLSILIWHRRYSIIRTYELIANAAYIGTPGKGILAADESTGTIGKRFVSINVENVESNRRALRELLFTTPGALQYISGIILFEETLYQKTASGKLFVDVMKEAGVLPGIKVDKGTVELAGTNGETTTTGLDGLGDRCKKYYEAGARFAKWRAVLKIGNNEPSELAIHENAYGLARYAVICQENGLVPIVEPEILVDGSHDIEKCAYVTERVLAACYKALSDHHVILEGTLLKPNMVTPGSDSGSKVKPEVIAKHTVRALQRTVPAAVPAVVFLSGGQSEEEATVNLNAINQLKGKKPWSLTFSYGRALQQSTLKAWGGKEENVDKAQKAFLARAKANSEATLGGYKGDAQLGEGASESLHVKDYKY

AtFBA5 (SUMO-AtFBA5) [2] = target: T2, AtFBA5 (SUMO-AtFBA5) (Arabidopsis thaliana, UniProt O65581); assay: coupled NADH assay, activity relative to control
T2 sequence (O65581 1-358): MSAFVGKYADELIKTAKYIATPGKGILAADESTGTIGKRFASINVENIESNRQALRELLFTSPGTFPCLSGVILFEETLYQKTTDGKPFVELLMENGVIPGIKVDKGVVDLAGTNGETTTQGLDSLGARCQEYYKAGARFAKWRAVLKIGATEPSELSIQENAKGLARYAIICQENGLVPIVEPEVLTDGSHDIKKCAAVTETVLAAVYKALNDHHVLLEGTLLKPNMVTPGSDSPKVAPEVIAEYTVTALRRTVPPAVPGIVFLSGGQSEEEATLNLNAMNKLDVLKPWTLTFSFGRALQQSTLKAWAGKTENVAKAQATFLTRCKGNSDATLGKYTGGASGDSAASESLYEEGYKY

AtFBA4 (SUMO-AtFBA4) [3] = target: T1, AtFBA4 (SUMO-AtFBA4); assay: coupled NADH assay at […] nm, FBP saturation curves with inhibitor
AtFBA5 (SUMO-AtFBA5) [4] = target: T2, AtFBA5 (SUMO-AtFBA5); assay: as above

O=C(O)C[C@H](O)C(=O)O [Malate]
remaining activity at 5000 µM (AtFBA4 (SUMO-AtFBA4) [1]): 68 ± 12%

N[C@@H](Cc1ccc(O)cc1)C(=O)N[C@@H](CC(=O)O)C(=O)O [Tyr-Asp] (H-Tyr-Asp-OH)
remaining activity at 500 µM (AtFBA5 (SUMO-AtFBA5) [2]; read-out: % residual activity at 0.50 mM): 82 ± 5%

O=P(O)(O)OP(=O)(O)O [PPi]
% of control activity at 1.0 mM (AtFBA5 (SUMO-AtFBA5) [2]; pH 7.5, 250 µM FBP): 144 ± 10%

O=C(O)CCC(=O)C(=O)O [2-OG]
remaining activity at 5000 µM (AtFBA4 (SUMO-AtFBA4) [1]): 69 ± 2%

O=c1c(O)c(-c2ccc(O)cc2O)oc2cc(O)cc(O)c12 [morin, 3,5,7,2′,4′-pentahydroxyflavone]
Ki (AtFBA4 (SUMO-AtFBA4) [3]): 80 ± 10 µM
Ki (AtFBA5 (SUMO-AtFBA5) [4]): 63 ± 4 µM
